Where two headings read alike, the source gives them in different places.
What was measured:
[1] = Critical micellar concentration (ANS fluorescence); format: physicochemical; conditions: for CMC compared with native (underivatised) saponin: comparison in words
Experimental: The critical micellar concentration (CMC) of saponins derived from Saponaria officinalis (SO) (Table A7) and derived from Quillaja saponaria (QS) (Table A8, and Table A9) was determined by the method of DeVendittis et al. (A fluorimetric method for the estimation of the critical micelle concentration of surfactants, Analytical Biochemistry, Volume 115, Issue 2, August 1981, Pages 278-286) as follows:
The emission spectrum of 8-Anilinonaphthalene-1-sulfonic acid (ANS) in either purified water (MQ) or PBS (Dulbecco's PBS+/+) was determined at dry weight concentrations of saponins ranging from 1 to 1400 μM to cover the range below and above the CMC. Above the CMC, the fluorescence yield of ANS increases and the wavelength of maximum emission decreases due to portioning of the fluorescent dye into micelles. Fluorescence yields were recorded on a Fluoroskan Ascent FL (Thermo Scientific) at an excitation wavelength of 355 nm, and an emission wavelength of 460 nm. 6 μg at a concentration of 75.86 μM of ANS were used per sample and measurement.

[2] = test system: EGFR expressing cells (HeLa); test: cells; conditions: for IC50: Homo sapiens, HeLa, read-out: IC50 endosomal escape enhancing activity, in HeLa or A431, + 5 pM EGF-dianthin, summary range; for endosomal escape enhancing activity (enhancement of cytotoxicity of ADC / effector molecules): summary statement in the description
[3] = test system: human red blood cells; test: cells; conditions: for hemolytic activity compared with unmodified saponin: comparison in words
Experimental: Red blood cells (RBCs) were isolated from a buffy coat using a Ficoll gradient. The obtained RBC pellet (˜4-5 ml) was washed 2× with 50 ml DPBS (without Ca^2+/Mg^2+, PAN-Biotech GmbH). Cells were pelleted by centrifugation for 10 min, 800×g at RT. RBC were counted and resuspended at 500.000.000 c/ml in DPBS (without Ca^2+/Mg^2+), based on total cell count.
Saponin dilutions were prepared in DPBS (with Ca^2+/Mg^2+, PAN-Biotech GmbH), at 1.11×final strength. For positive lysis control a 0.02% Triton-X100 solution was prepared in DPBS^+/+. Of all compound solutions 135 μl was dispensed/well in a 96 well V-bottom plate. To this 15 μl RBC suspension was added and mixed shortly (10 sec-600 rpm). The plate was incubated 30 min at RT, with gentle agitation. Afterwards the plate was spun for 10 min at 800×g to pellet the RBC and 100-120 μl supernatant was transferred to a standard 96 wp (96 well-plate).

[4] = test system: HeLa cells; test: cells; conditions: for IC50: Homo sapiens, HeLa; for cytotoxicity compared with unmodified saponin: comparison in words
[5] = test system: HeLa (EGFR+) cells; conditions: saponin as single compound
Experimental: To extend this test, saponins from other sources were analyzed. A saponin purified from a root extract of Gypsophila elegans M. Bieb. […] FIG. 63C).

[6] = test system: A431 (EGFR++) cells; test: Cell viability, saponin derivative with or without […] EGFdianthin; conditions: A431, saponin as single compound
[7] = test system: HSP27 mRNA in SK-BR-3 cells; test: HSP27 mRNA gene silencing analysis; format: cell-based; conditions: with and without SO1861-Ald-EMCH, SK-BR-3 (FIG. 58)
Excerpt: (§1) RNA from cells was isolated and analysed according to standard protocols (Biorad). qPCR primers that were used are indicated in Table A10.

[8] = test system: HeLa cells; test: Pilot cell viability bioassay, saponin + 1.5 pM dianthin-EGF, 72 h; format: cell-based; conditions: 10 microgram/ml saponin + […] dianthin-EGF
Experimental: HeLa cells were incubated for 72 h with the following constructs and cell viability before and after the 72 h-incubation was assessed. In the experiments, cells were exposed to 1.5 pM dianthin-EGF conjugate. A negative control were cells incubated with buffer vehicle and 10 microgram/ml saponin, without dianthin-EGF. Cell viability was set to 100% for the control in which both saponin and EGF-dianthin were omitted. […] Cell viability after 72 h was essentially 0%. For the chemically modified saponin variants, 10 microgram/ml saponin was tested in combination with 1.5 pM dianthin-EGF.

[9] = test system: A2058 (EGFR−) cells; test: Cell viability, saponin derivative with or without […] EGFdianthin; conditions: A2058, saponin as single compound
[10] = test system: EGFR expressing cells (A431); test: Cell viability assay (MTS): saponin titrated on fixed 10 pM targeted toxin; format: cell-based; conditions: without targeted toxin
[11] = test system: HSP27 mRNA in A431 cells; test: HSP27 mRNA gene silencing analysis; format: cell-based; conditions: A431, without oligonucleotide
Excerpt: as §1

## CC(=O)OC1C(C)OC(OC2C(C)OC(OC(=O)[C@]34CCC(C)(C)CC3C3=CCC5[C@@]6(C)CC[C@H](OC7OC(C(=O)O)C(O)C(OC8OCC(O)C(O)C8O)C7OC7OC(CO)C(O)C(O)C7O)[C@@](C)(/C=N/NC(=O)CCCCCN7C(=O)C[C@H](SCCO)C7=O)C6CC[C@@]5(C)[C@]3(C)C[C@H]4O)C(OC3OC(C)C(OC4OCC(O)C(OC5OC(CO)C(O)C(O)C5O)C4O)C(O)C3O)C2O)C(O)C1OC1OCC(O)C(O)C1O (stereo partly shown) [SO1861-Ald-EMCH-blocked]
[1]; SO saponins, determined in PBS, Table A7
  CMC: 50 ± 5 µM
[1]
  CMC compared with native (underivatised) saponin: lower CMC values
[2]
  IC50: 0.6 to 2 µM
[3]; Homo sapiens, Erythrocyte, read-out: IC50 nM (hemolysis)
  IC50: 300000 nM
[3]; Homo sapiens, Erythrocyte, read-out: IC50 hemolytic activity
  IC50: 300000 nM
[3]
  hemolytic activity compared with unmodified saponin: less hemolytically active
[3]; read-out: IC50 nM (hemolysis), red blood cells, Table A6
  IC50: 300000 nM
[4]; read-out: IC50 nM (Toxicity)
  IC50: > 100000 nM
[4]; read-out: IC50 toxicity
  IC50: > 100000 nM
[4]
  cytotoxicity compared with unmodified saponin: less cytotoxic

## CC1OC(OC2C(C)OC(OC(=O)[C@]34CCC(C)(C)CC3C3=CCC5[C@@]6(C)CC[C@H](OC7OC(C(=O)O)C(O)C(OC8OCC(O)C(O)C8O)C7OC7OC(CO)C(O)C(O)C7O)[C@@](C)(C=O)C6CC[C@@]5(C)[C@]3(C)C[C@H]4O)C(OC3OC(C)C(OC4OCC(O)C(OC5OC(CO)C(O)C(O)C5O)C4O)C(O)C3O)C2O)C(O)C(OC2OCC(O)C(O)C2O)C1O (stereo partly shown) [Molecule 8]
[1]
  CMC compared with native (underivatised) saponin: increased CMC
[2]
  endosomal escape enhancing activity (enhancement of cytotoxicity of ADC / effector molecules): display activity

## CC(=O)OC1C(C)OC(OC2C(C)OC(OC(=O)C34CCC(C)(C)CC3C3=CCC5C6(C)CCC(OC7OC(C(=O)O)C(O)C(OC8OCC(O)C(O)C8O)C7OC7OC(CO)C(O)C(O)C7O)C(C)(C=NNC(=O)CCOCCOCCOCCOCCN=[N+]=[N-])C6CCC5(C)C3(C)CC4O)C(OC3OC(C)C(OC4OCC(O)C(OC5OC(CO)C(O)C(O)C5O)C4O)C(O)C3O)C2O)C(O)C1OC1OCC(O)C(O)C1O (stereo not shown)
[5]
  general toxicity in absence of EGFdianthin: above 10.000 nM
[6]
  general toxicity in absence of EGFdianthin: above 10.000 nM

## HSP27LNA: HSP27 LNA oligo 5′-ggcacagccagtggcg-3′ (GGCACAGCCAGTGGCG; LNA-modified, pattern not given here)
[7]
  endosomal escape/gene silencing enhancement factor compared with HSP27BNA: comparable

## CC(=O)OC1C(C)OC(OC2C(C)OC(OC(=O)[C@]34CCC(C)(C)CC3C3=CCC5[C@@]6(C)CC[C@H](OC7OC(C(=O)O)C(O)C(OC8OCC(O)C(O)C8O)C7OC7OC(CO)C(O)C(O)C7O)[C@@](C)(C=O)C6CC[C@@]5(C)[C@]3(C)C[C@H]4O)C(OC3OC(C)C(OC4OCC(O)C(OC5OC(CO)C(O)C(O)C5O)C4O)C(O)C3O)C2O)C(O)C1OC1OCC(O)C(O)C1O (stereo partly shown) [SO1861, reference compound]
[8]
  Cell viability after 72 h: ~0%
[1]; PBS (Tables A7, A9)
  CMC: 185 µM
[5]
  general toxicity in absence of EGFdianthin: strong cell viability reduction
[9]
  general toxicity in absence of EGFdianthin: strong cell viability reduction
[6]
  general toxicity in absence of EGFdianthin: strong cell viability reduction
[10]
  cell killing activity of saponin alone: no cell killing activity

## CC(=O)OC1C(C)OC(OC2C(C)OC(OC(=O)[C@]34CCC(C)(C)CC3C3=CCC5[C@@]6(C)CC[C@H](OC7OC(C(=O)O)C(O)C(OC8OCC(O)C(O)C8O)C7OC7OC(CO)C(O)C(O)C7O)[C@@](C)(C=O)C6CC[C@@]5(C)[C@]3(C)C[C@H]4O)C(OC3OC(C)C(OC4OCC(O)C(OC5OCC(O)C(O)C5O)C4O)C(O)C3O)C2O)C(O)C1OC(C)=O (stereo partly shown) [GE1741, reference compound]
[5]
  general toxicity in absence of EGFdianthin: 5.000 nM

## CC1OC(OC2C(C)OC(OC(=O)C34CCC(C)(C)CC3C3=CCC5C6(C)CCC(OC7OC(C(=O)O)C(O)C(OC8OCC(O)C(O)C8O)C7OC7OC(CO)C(O)C(O)C7O)C(C)(C=NNC(=O)CCCCCN7C(=O)C=CC7=O)C6CCC5(C)C3(C)CC4O)C(OC3OC(C)C(OC4OCC(O)C(OC5OC(CO)C(O)C(O)C5O)C4O)C(O)C3O)C2O)C(O)C(OC2OCC(O)C(O)C2O)C1O (stereo not shown) [Molecule 15]
[1]
  CMC compared with native (underivatised) saponin: increased CMC
[2]
  endosomal escape enhancing activity (enhancement of cytotoxicity of ADC / effector molecules): have the capacity to enhance the cytotoxic effect

## CC(=O)OC1C(C)OC(OC2C(C)OC(OC(=O)[C@]34CCC(C)(C)CC3C3=CCC5[C@@]6(C)CC[C@H](OC7OC(C(=O)O)C(O)C(OC8OCC(O)C(O)C8O)C7OC7OC(CO)C(O)C(O)C7O)[C@@](C)(CO)C6CC[C@@]5(C)[C@]3(C)C[C@H]4O)C(OC3OC(C)C(OC4OCC(O)C(OC5OC(CO)C(O)C(O)C5O)C4O)C(O)C3O)C2O)C(O)C1OC1OCC(O)C(O)C1O (stereo partly shown) [Molecule 6]
[1]
  CMC compared with native (underivatised) saponin: increased CMC
[2]
  endosomal escape enhancing activity (enhancement of cytotoxicity of ADC / effector molecules): have the capacity to enhance the cytotoxic effect

## CC(=O)OC1C(C)OC(OC2C(C)OC(OC(=O)[C@]34CCC(C)(C)CC3C3=CCC5[C@@]6(C)CC[C@H](OC7OC(C(=O)O)C(O)C(OC8OCC(O)C(O)C8O)C7OC7OC(CO)C(O)C(O)C7O)[C@@](C)(/C=N/NC(=O)CCCCCN7C(=O)C=CC7=O)C6CC[C@@]5(C)[C@]3(C)C[C@H]4O)C(OC3OC(C)C(OC4OCC(O)C(OC5OC(CO)C(O)C(O)C5O)C4O)C(O)C3O)C2O)C(O)C1OC1OCC(O)C(O)C1O (stereo partly shown) [SO1861-Ald-EMCH]
[8]
  Cell viability after 72 h: reduced cell viability
[1]; PBS (Tables A7, A9)
  CMC: > 800 µM
[1]
  CMC compared with native (underivatised) saponin: higher CMC values
[11]
  HSP27 gene silencing activity of saponin derivative alone: no HSP27 gene silencing activity
[5]
  general toxicity in absence of EGFdianthin: > 25.000 nM
[2]
  IC50: 0.6 to 2 µM
[9]
  general toxicity in absence of EGFdianthin: > 25.000 nM
[6]
  general toxicity in absence of EGFdianthin: > 25.000 nM
[10]
  cell killing activity of saponin alone: no cell killing activity
[3]
  hemolytic activity compared with unmodified saponin: less hemolytically active
[4]
  cytotoxicity compared with unmodified saponin: less cytotoxic

## CC1OC(OC2C(C)OC(OC(=O)[C@]34CCC(C)(C)CC3C3=CCC5[C@@]6(C)CC[C@H](OC7OC(C(=O)O)C(O)C(OC8OCC(O)C(O)C8O)C7OC7OC(CO)C(O)C(O)C7O)[C@@](C)(CO)C6CC[C@@]5(C)[C@]3(C)C[C@H]4O)C(OC3OC(C)C(OC4OCC(O)C(OC5OC(CO)C(O)C(O)C5O)C4O)C(O)C3O)C2O)C(O)C(OC2OCC(O)C(O)C2O)C1O (stereo partly shown) [Molecule 10]
[1]
  CMC compared with native (underivatised) saponin: increased CMC
[2]
  endosomal escape enhancing activity (enhancement of cytotoxicity of ADC / effector molecules): have the capacity to enhance the cytotoxic effect

## CC(=O)OC1C(C)OC(OC2C(C)OC(OC(=O)[C@]34CCC(C)(C)CC3C3=CCC5[C@@]6(C)CC[C@H](OC7OC(C(=O)NCCN8C(=O)C=CC8=O)C(O)C(OC8OCC(O)C(O)C8O)C7OC7OC(CO)C(O)C(O)C7O)[C@@](C)(C=O)C6CC[C@@]5(C)[C@]3(C)C[C@H]4O)C(OC3OC(C)C(OC4OCC(O)C(OC5OC(CO)C(O)C(O)C5O)C4O)C(O)C3O)C2O)C(O)C1OC1OCC(O)C(O)C1O (stereo partly shown) [Molecule 18]
[2]
  endosomal escape enhancing activity (enhancement of cytotoxicity of ADC / effector molecules): display activity
